Test [1] has as its target T1, menin/MLL (terbium chelate-labeled menin, FITC-MBM1 peptide) (Homo sapiens, UniProt O00255, T541A).
T1 construct: Menin (a.a 1-610-6xhis tag)
T1 sequence (O00255 with tags, fused parts or gaps T541A): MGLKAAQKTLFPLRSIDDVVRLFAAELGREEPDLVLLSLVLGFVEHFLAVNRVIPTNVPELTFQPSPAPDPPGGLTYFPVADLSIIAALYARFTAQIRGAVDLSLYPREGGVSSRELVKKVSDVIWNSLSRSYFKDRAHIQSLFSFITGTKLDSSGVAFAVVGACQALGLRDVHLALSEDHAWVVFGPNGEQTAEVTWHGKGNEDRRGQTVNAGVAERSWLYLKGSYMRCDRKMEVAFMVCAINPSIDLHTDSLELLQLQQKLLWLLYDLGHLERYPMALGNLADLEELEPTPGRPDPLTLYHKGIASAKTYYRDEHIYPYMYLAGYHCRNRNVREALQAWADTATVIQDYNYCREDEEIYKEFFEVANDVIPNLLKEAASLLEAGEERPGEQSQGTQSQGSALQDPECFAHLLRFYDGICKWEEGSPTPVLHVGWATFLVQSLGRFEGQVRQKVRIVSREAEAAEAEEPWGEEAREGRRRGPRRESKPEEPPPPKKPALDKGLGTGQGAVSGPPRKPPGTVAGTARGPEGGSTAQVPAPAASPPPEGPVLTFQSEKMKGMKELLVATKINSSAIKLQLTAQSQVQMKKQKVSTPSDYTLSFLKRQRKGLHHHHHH
The experiment in a line: Menin/MLL homogenous time-resolved fluorescence (HTRF) assay. In kind it is binding. The conditions noted are these: 30 min incubation. The method, boiled down:
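Compounds were preincubated 30 min at ambient temperature with 200 pM terbium-labeled menin (aa 1-610, His-tagged) in Tris pH 7.5 buffer with DTT and Pluronic, then 75 nM FITC-MBM1 peptide added for 15 min. HTRF ratio 520/490 nm gave % inhibition; IC50 from four-parameter fit, floor 0.1 nM.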
On the technique in general: In TR-FRET formats the signal depends on donor and acceptor labels being close together.

For the next test, the system named is KO-52 cells. The experiment in a line: Proliferation assay, spheroid-like growth, KO-52 (MLL wildtype control cell line). It is filed as cell-based, human. The conditions noted are these: Homo sapiens, 192 h, KO-52 control cells, 8 days, confluence as measure of spheroid size; read-out: spheroid assay_OneTime KO-52 IC50. The method, boiled down: (§1)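 IC50 derived from a variable-slope dose-response fit of percent confluence change, with DMSO-treated cells as high control and high-dose reference compound as low control. Spheroid-like growth of MOLM14 (200 cells/well) or KO-52 (300 cells/well) in ultra-low attachment plates, 8 days, 37° C, 5% CO2, DMSO normalised to 0.3%, imaged at day 8.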

The test system of the next test is MOLM14 cells. Briefly: Proliferation assay, spheroid-like growth, MOLM14 (MLL-AF9 rearranged). It is filed as cell-based, human. The conditions noted are these: Homo sapiens, MOLM-14, 192 h, 8 days, confluence as measure of spheroid size, read-out: spheroid assay_OneTime MOLM14 IC50. The method in brief: as §1

pIC50: −log10 of the molar value.

Consider `CC(C)[C@@H]([C@H]1C[C@@H](NC(=O)C2CC2)C1)N1CC2(CCN(c3ncnnc3Oc3ccc(F)cc3-c3cnncc3C3CC3)C2)C1` (single isomer, unassigned) [Compound 186], for which the pIC50 in test [1] was 8.27; in the test with KO-52 cells, 5.15; with MOLM14 cells, below 6.03.

In the case of `CC(C)[C@H]([C@H]1C[C@@H](N2CCC[C@H](F)C2)C1)N1CC2(CCN(c3ncnnc3Oc3ccc(F)cc3-c3cncnc3C3CC3)C2)C1` (single isomer, unassigned) [Compound 200], the pIC50 was 10.00 in test [1], 5.01 with KO-52 cells and 7.80 in the test on MOLM14 cells.

`CC1CN([C@H]2C[C@@H]([C@@H](C(C)C)N3CC4(CCN(c5ncnnc5Oc5ccc(F)cc5-c5cncnc5C5CC5)C4)C3)C2)CCC1O` (single isomer, unassigned) [Compound 201]: the pIC50 was 9.70 in test [1], 5.37 with KO-52 cells and 8.22 in the test with MOLM14 cells.

With `CC(C)[C@H]([C@H]1C[C@H](N2CCC3(C2)CS(=O)(=O)C3)C1)N1CC2(CCN(c3ncnnc3Oc3ccc(F)cc3-c3cncnc3C3CC3)C2)C1` (single isomer, unassigned) [Compound 204], the pIC50 in test [1] was 9.52; in the test on KO-52 cells, below 4.82; with MOLM14 cells, 6.72.

Take `CC(C)[C@H]([C@H]1C[C@@H](N2CCC3(C2)CS(=O)(=O)C3)C1)N1CC2(CCN(c3ncnnc3Oc3ccc(F)cc3-c3cncnc3C3CC3)C2)C1` (single isomer, unassigned) [Compound 205]: the pIC50 in test [1] was 10.00; in the test on KO-52 cells it was 5.07; in the test with MOLM14 cells it was 7.41.

Take `CC(C)[C@H]([C@H]1C[C@@H](N2CCC[C@@H](F)C2)C1)N1CC2(CCN(c3ncnnc3Oc3ccc(F)cc3-c3cncnc3C3CC3)C2)C1` (single isomer, unassigned) [Compound 206]: the pIC50 was 9.70 in test [1], 5.10 with KO-52 cells and 8.05 in the test on MOLM14 cells.

In the case of `CC(C)[C@H]([C@H]1C[C@@H](N2CCOCC2)C1)N1CC2(CCN(c3ncnnc3Oc3ccc(F)cc3-c3cncnc3C3CC3)C2)C1` (single isomer, unassigned) [Compound 208], the pIC50 in test [1] was 9.52; in the test on KO-52 cells it was 5.04; in the test with MOLM14 cells, 7.54.

For the compound `CC(C)[C@H]([C@H]1C[C@@H](N2CCC(S(=O)(=O)C(C)C)CC2)C1)N1CC2(CCN(c3ncnnc3Oc3ccc(F)cc3-c3cncnc3C3CC3)C2)C1` (single isomer, unassigned) [Compound 209], the results for the pIC50 (in test [1]; in the test with KO-52 cells; in the test on MOLM14 cells) were 9.52, 5.28 and 7.80, respectively.

As to `CO[C@@H]1CCN([C@H]2C[C@@H]([C@@H](C(C)C)N3CC4(CCN(c5ncnnc5Oc5ccc(F)cc5-c5cncnc5C5CC5)C4)C3)C2)C1` (single isomer, unassigned) [Compound 211], the results for the pIC50 (in test [1]; in the test on KO-52 cells; with MOLM14 cells) were 10.00, below 4.82 and 8.52, respectively.

Consider `CC(C)[C@H]([C@H]1C[C@@H](N2C[C@H](O)C3(CCC3)C2)C1)N1CC2(CCN(c3ncnnc3Oc3ccc(F)cc3-c3cncnc3C3CC3)C2)C1` (single isomer, unassigned) [Compound 214], for which the results for the pIC50 (in test [1]; with KO-52 cells; in the test with MOLM14 cells) were 10.00, 5.44 and above 8.70, respectively.

Take `CC(C)[C@H]([C@H]1C[C@@H](N2C[C@@H](O)C3(CCC3)C2)C1)N1CC2(CCN(c3ncnnc3Oc3ccc(F)cc3-c3cncnc3C3CC3)C2)C1` (single isomer, unassigned) [Compound 215]: the pIC50 in test [1] is 10.00; in the test with KO-52 cells, 5.10; with MOLM14 cells, 8.70.

For the compound `CC(C)[C@H]([C@H]1C[C@@H](N2CCC3(CC2)COC3)C1)N1CC2(CCN(c3ncnnc3Oc3ccc(F)cc3-c3cncnc3C3CC3)C2)C1` (single isomer, unassigned) [Compound 231], the values for the pIC50 (in test [1]; with KO-52 cells; in the test on MOLM14 cells) were 10.00, 5.26 and 8.15, respectively.

For `CC(C)[C@H]([C@H]1C[C@@H](N2CCC3(CCO3)CC2)C1)N1CC2(CCN(c3ncnnc3Oc3ccc(F)cc3-c3cncnc3C3CC3)C2)C1` (single isomer, unassigned) [Compound 232], the pIC50 in test [1] was 10.00; with KO-52 cells, 5.74; in the test on MOLM14 cells it was 8.15.

Consider `CO[C@H]1[C@@H]2CN([C@H]3C[C@@H]([C@@H](C(C)C)N4CC5(CCN(c6ncnnc6Oc6ccc(F)cc6-c6cncnc6C6CC6)C5)C4)C3)C[C@@H]21` (single isomer, unassigned) [Compound 233], for which the pIC50 is 10.00 in test [1], 6.08 with KO-52 cells and 8.70 in the test on MOLM14 cells.

For `CC(C)[C@H]([C@H]1C[C@@H](N2C[C@H]3C[C@@H]2CO3)C1)N1CC2(CCN(c3ncnnc3Oc3ccc(F)cc3-c3cncnc3C3CC3)C2)C1` (single isomer, unassigned) [Compound 234], the pIC50 in test [1] is 10.00; in the test with KO-52 cells, 5.20; with MOLM14 cells, 8.05.

As for `COC1CN([C@H]2C[C@@H]([C@@H](C(C)C)N3CC4(CCN(c5ncnnc5Oc5ccc(F)cc5-c5cncnc5C5CC5)C4)C3)C2)CC1OC` (single isomer, unassigned) [Compound 236], the pIC50 in test [1] was 9.70; in the test with KO-52 cells, 5.65; in the test with MOLM14 cells, 8.40.

As to `COC1CN([C@H]2C[C@H]([C@@H](C(C)C)N3CC4(CCN(c5ncnnc5Oc5ccc(F)cc5-c5cncnc5C5CC5)C4)C3)C2)CC1OC` (single isomer, unassigned) [Compound 237], the pIC50 in test [1] is 9.70; in the test on KO-52 cells, 5.10; in the test on MOLM14 cells it was 7.44.

With `CC(C)[C@H]([C@H]1C[C@@H](N2CC[C@H](F)C2)C1)N1CC2(CCN(c3ncnnc3Oc3ccc(F)cc3-c3cncnc3C3CC3)C2)C1` (single isomer, unassigned) [Compound 238], the pIC50 in test [1] was 10.00; in the test on KO-52 cells, 5.14; with MOLM14 cells, 8.70.

As for `CC(C)[C@H]([C@H]1C[C@H](N2CC[C@H](F)C2)C1)N1CC2(CCN(c3ncnnc3Oc3ccc(F)cc3-c3cncnc3C3CC3)C2)C1` (single isomer, unassigned) [Compound 239], the pIC50 in test [1] was 9.52; in the test with KO-52 cells, 5.55; in the test on MOLM14 cells, 7.80.

On to `CC(C)[C@H]([C@H]1C[C@@H](N(C)CCCS(C)(=O)=O)C1)N1CC2(CCN(c3ncnnc3Oc3ccc(F)cc3-c3cncnc3C3CC3)C2)C1` (single isomer, unassigned) [Compound 242], for which the figures for the pIC50 (in test [1]; in the test with KO-52 cells; with MOLM14 cells) were 10.00, 4.92 and 8.10, respectively.

On to `CC(C)[C@H]([C@H]1C[C@@H](N2CC(C(=O)N(C)C)C2)C1)N1CC2(CCN(c3ncnnc3Oc3ccc(F)cc3-c3cncnc3C3CC3)C2)C1` (single isomer, unassigned) [Compound 243], for which the pIC50 in test [1] was 8.60; in the test on KO-52 cells, below 4.82; in the test on MOLM14 cells, 6.24.

On to `CC(C)[C@@H]([C@H]1C[C@H](N2C[C@H]3COC[C@H]3C2)C1)N1CC2(CCN(c3ncnnc3Oc3ccc(F)cc3-c3cncnc3C3CC3)C2)C1` (single isomer, unassigned) [Compound 245], for which the results for the pIC50 (in test [1]; in the test on KO-52 cells; in the test on MOLM14 cells) were 9.22, 5.05 and 6.34, respectively.

Consider `CC(C)[C@H]([C@H]1C[C@@H](N2C[C@@H]3[C@H](C2)[C@H]3C(=O)N(C)C)C1)N1CC2(CCN(c3ncnnc3Oc3ccc(F)cc3-c3cncnc3C3CC3)C2)C1` (single isomer, unassigned) [Compound 248], for which the pIC50 is 10.00 in test [1], 5.84 in the test on KO-52 cells and 8.40 with MOLM14 cells.

For the compound `CC(C)[C@@H]([C@H]1C[C@@H](N2CCCCC2)C1)N1CC2(CCN(c3ncnnc3Oc3ccc(F)cc3-c3nnccc3C3CC3)C2)C1` (single isomer, unassigned) [Compound 250], the values for the pIC50 (in test [1]; in the test with KO-52 cells; in the test with MOLM14 cells) were 10.00, 6.03 and 8.10, respectively.

Consider `CC(C)[C@@H]([C@H]1C[C@@H](N2CCC3(CCO3)CC2)C1)N1CC2(CCN(c3ncnnc3Oc3ccc(F)cc3-c3nnccc3C3CC3)C2)C1` (single isomer, unassigned) [Compound 251], for which the figures for the pIC50 (in test [1]; in the test on KO-52 cells; in the test on MOLM14 cells) were 9.70, 5.91 and 8.15, respectively.

Broadly, the pIC50 is the negative decadic logarithm of the IC50, by convention in mol/L.
